In patent US11173184B2 (priority 2016, dated 2021):
Read-outs that look alike come from different tables or passages of the source.

Columns and labels:
[1] = test system: male Ross 308 broilers with induced Necrotic Enteritis challenge; set-up: species or system broiler chickens; settings: in vivo
Clostridium perfringens = type: in vivo
[2] = test system: male Ross 308 broilers with induced Necrotic Enteritis challenge (E. maxima, Clostridium perfringens); type: in vivo, broiler chickens
Bacillus spp. = test: Molecular enumeration (quantitative PCR) in digesta; type: in vivo
Vencobb 400 broilers = type: in vivo, broiler chickens
male Ross 308 broilers = type: in vivo, broiler chickens; settings: 1-42 d
[3] = 1-35 days, necrotic enteritis challenge

Compound: CC[C@@H](C(=O)O)[C@@H]1O[C@@H]([C@@H](C)[C@H](O)[C@H](C)C(=O)[C@H](CC)[C@H]2O[C@]3(C=C[C@@H](O)[C@]4(CC[C@@](C)([C@H]5CC[C@](O)(CC)[C@H](C)O5)O4)O3)[C@H](C)C[C@@H]2C)[C@@H](C)C[C@@H]1C [Narasin]
- Footpad Lesion Score (0-4) [1]: 0.41
- C. perfringens (Clostridium perfringens; Day 11 Cecum): 6.38 Log^10 of gene copies/g
- C. perfringens (Clostridium perfringens; Day 11 Ileum): 4.18 Log^10 of gene copies/g
- C. perfringens (Clostridium perfringens; Day 18 Cecum): 4.87 Log^10 of gene copies/g
- C. perfringens (Clostridium perfringens; Day 18 Ileum): 4.60 Log^10 of gene copies/g
- C. perfringens (Clostridium perfringens; Day 35 Cecum): 4.81 Log^10 of gene copies/g
- C. perfringens (Clostridium perfringens; Day 35 Ileum): 4.03 Log^10 of gene copies/g
- BW, average bird body weight [2, 3]: 2778.4 g
- FCR, feed conversion ratio (feed to gain) [2, 3]: 1.431 g/g
- aFCR, feed conversion ratio adjusted for mortalities [2, 3]: 1.425 g/g
- Mortality as a percentage of the pen population ([2]; day 11-35, necrotic enteritis challenge): 1.3%
- Bacillus spp. (Bacillus spp.; Day 11 Cecum): 5.24 Log^10 of gene copies/g
- Bacillus spp. (Bacillus spp.; Day 11 Ileum): 5.68 Log^10 of gene copies/g
- Bacillus spp. (Bacillus spp.; Day 18 Cecum): 4.54 Log^10 of gene copies/g
- Bacillus spp. (Bacillus spp.; Day 18 Ileum): 4.94 Log^10 of gene copies/g
- Bacillus spp. (Bacillus spp.; Day 35 Cecum): 5.23 Log^10 of gene copies/g
- Bacillus spp. (Bacillus spp.; Day 35 Ileum): 4.84 Log^10 of gene copies/g

Compound: Bacitracin Methylene Disalicyclate [BMD]
- BW, average bird body weight (Vencobb 400 broilers; 1-21 d): 649.4 g
- FCR, feed conversion ratio (feed to gain) (Vencobb 400 broilers; 1-21 d): 1.45 g/g
- BW, average bird body weight (Vencobb 400 broilers; 1-42 d): 2321.4 g
- FCR, feed conversion ratio (feed to gain) (Vencobb 400 broilers; 1-42 d): 1.74 g/g

Compound: Zinc Bacitracin [ZnB]
- BW, average bird body weight (male Ross 308 broilers): 2988.0 g
- FCR, feed conversion ratio adjusted for mortalities (male Ross 308 broilers): 1.78 g/g
- Mortality (male Ross 308 broilers): 1.67%
